Values of other authors as cited in paper PMC12042267, “Expanding the Family of Monosubstituted 15-Membered Pyridine-Based Macrocyclic Ligands for Mn(II) Complexation in the Context of MRI” (Inorganic Chemistry, 2025).
Read-outs that look alike come from different tables or passages of the source.

Legend:
[1] = Cu(II), cited from earlier work
[2] = cited from earlier work
[3] = cited from earlier work; remark: listed apart in the source
[4] = Mn(II) complex, cited from earlier work; for dissociation half-life t1/2: calculated for pH 7.4
[5] = Zn(II), cited from earlier work
[6] = Ca(II), cited from earlier work
[7] = cited from earlier work; remark: listed apart in the source
[8] = cited from earlier work; for r1p298: 298 K and 0.47 T ref 21; for r1 (relaxivity): 20 MHz, 0.47 T ref 28
[9] = cited from earlier work; remark: listed apart in the source
[10] = Mn(II) complex, cited from earlier work
[11] = 0.15 NaCl and 2 mM concentration ref 21, 58

c1cc2nc(c1)CNCCNCCNCCNC2 [15-pyN5]
log KML ([1]; 0.1 M NMe4Cl ref 28): 21.84
log KML(OH) ([1]; 0.1 M NMe4Cl ref 28): -12.30
log KML ([2]; Mn(II), 0.1 M NMe4Cl ref 28): 10.89
log KML(OH) ([2]; Mn(II), 0.1 M NMe4Cl ref 28): -11.52
log KHML ([2]; Mn(II), 0.1 M NMe4Cl, log KMnHL in Table 5 ref 28): 4.27
log KHML ([2]; Mn(II), 0.1 M NaClO4 ref 40): 4.20
log KML ([2]; Mn(II), 0.1 M NaClO4 ref 40): 11.64
log KHML ([2]; Mn(II), 0.1 M NaClO4 ref 41): 4.51
log KML ([2]; Mn(II), 0.1 M NaClO4 ref 41): 11.12
pMn ([2]; pH 7.4, cMn = clig = 10^–5 M ref 28): 6.37
pMn ([2]; pH 7.4, cMn = clig = 10^–5 M ref 40): 6.60
pMn ([2]; pH 7.4, cMn = clig = 10^–5 M ref 41): 6.59
log K1^H ([3]; 0.1 M NMe4Cl ref 28): 9.40
log K2^H ([3]; 0.1 M NMe4Cl ref 28): 8.54
log K3^H ([3]; 0.1 M NMe4Cl ref 28): 5.28
log K1^H ([3]; 0.1 NaClO4 ref 40): 9.43
log K2^H ([3]; 0.1 NaClO4 ref 40): 8.80
log K3^H ([3]; 0.1 NaClO4 ref 40): 5.28
log K1^H ([3]; 0.1 NaClO4 ref 41): 9.11
log K2^H ([3]; 0.1 NaClO4 ref 41): 8.82
log K3^H ([3]; 0.1 NaClO4 ref 41): 5.27
k1 ([4]; Zn(II) transmetalation ref 28): 423 M^–1 s^–1
k2 ([4]; Zn(II) transmetalation ref 28): 1.0 × 10^7 M^–2 s^–1
k4 ([4]; Zn(II) transmetalation ref 28): 1.7 × 10^4 M^–2 s^–1
dissociation half-life t1/2 ([4]; Zn(II) ref 28): 11.0 h
log KHML ([5]; 0.1 M NMe4Cl ref 28): 2.45
log KML ([5]; 0.1 M NMe4Cl ref 28): 16.27
log KML(OH) ([5]; 0.1 M NMe4Cl ref 28): -11.18
log KML ([6]; 0.1 M NMe4Cl ref 28): 2.97

O.O=C([O-])CN1CCNCc2cccc(n2)CN(CC(=O)[O-])CC1.[Mn+2] [Mn(3,6-PC2A)]
kex^298 [7]: 14.0 ± 2.5 10^7 s^–1
ΔH^‡ [7]: 38.2 ± 3.9 kJ mol^–1
r1p298 [8]: 2.72 mM^–1 s^–1
Eox [9, 11]: +862 mV

O.O=C([O-])CN1CCNCCN(CC(=O)[O-])Cc2cccc(n2)C1.[Mn+2] [Mn(3,9-PC2A)]
kex^298 [7]: 12.6 ± 1.2 10^7 s^–1
ΔH^‡ [7]: 37.5 ± 2.4 kJ mol^–1
r1p298 [8]: 2.91 mM^–1 s^–1
Eox [9, 11]: +838 mV

O=C(O)CN1CCNCc2cccc(n2)CNCC1 [PC1A]
log KHML ([1]; 0.1 M NMe4Cl ref 20): 2.09
log KML ([1]; 0.1 M NMe4Cl ref 20): 18.62
log KML ([2]; Mn(II), 0.1 M NMe4Cl ref 20): 11.54
log KHML ([2]; Mn(II), 0.1 M NMe4Cl, log KMnHL in Table 5 ref 20): 4.95
pMn ([2]; pH 7.4, cMn = clig = 10^–5 M ref 20): 8.10
log K1^H ([3]; 0.1 M NMe4Cl ref 20): 10.47
log K2^H ([3]; 0.1 M NMe4Cl ref 20): 8.71
log K3^H ([3]; 0.1 M NMe4Cl ref 20): 2.79
k1 ([4]; Zn(II) transmetalation ref 20): 2020 ± 40 M^–1 s^–1
k2 ([4]; Zn(II) transmetalation ref 20): (8.0 ± 0.3) × 10^7 M^–2 s^–1
dissociation half-life t1/2 ([4]; Zn(II) ref 20): 2.4 h
log KHML ([5]; 0.1 M NMe4Cl ref 20): 3.03
log KML ([5]; 0.1 M NMe4Cl ref 20): 17.01
log KHML ([6]; 0.1 M NMe4Cl ref 20): 7.39
log KML ([6]; 0.1 M NMe4Cl ref 20): 6.04

Mn(EDTA)
Eox [9, 11]: +769 mV

O.O.[Mn+2].c1cc2nc(c1)CNCCOCCOCCNC2 [Mn(15-pyN3O2)]
AO/ℏ [7]: 38.6 10^6 rad s^–1
ErH [7]: 16.1 kJ mol^–1
kex^298 [7]: 0.38 10^7 s^–1
ΔH^‡ [7]: 35.3 kJ mol^–1
ΔS^‡ [7]: –1.0 J mol^–1K^–1
Δ^2 [7]: 6.6 10^18 s^–2
τrH^298 [7]: 40.3 ps
τv^298 [7]: 3.3 ps
r1 (relaxivity) ([8]; 25 °C): 4.48 mM^–1 s^–1
r1 (relaxivity) ([8]; 37 °C): 3.61 mM^–1 s^–1
Eox [9]: 912 mV

O=C(O)CN1CCN(Cc2ccc(-c3ccccc3)cc2)CCN(CC(=O)O)Cc2cccc(n2)C1 [PC2A-BP]
log KHML ([1]; I = 0.15 M NaCl, 25 °C ref 23): 1.04
log KML ([1]; I = 0.15 M NaCl, 25 °C ref 23): 22.30
log KML ([2]; Mn(II), I = 0.15 M NaCl, 25 °C ref 23): 14.86
pMn ([2]; pH 7.4, cMn = clig = 10^–5 M ref 23): 8.35
log K1^H ([3]; I = 0.15 M NaCl, 25 °C ref 23): 10.45
log K2^H ([3]; I = 0.15 M NaCl, 25 °C ref 23): 6.93
log K3^H ([3]; I = 0.15 M NaCl, 25 °C ref 23): 2.36
log K4^H ([3]; I = 0.15 M NaCl, 25 °C ref 23): 1.64
log KHML ([5]; I = 0.15 M NaCl, 25 °C ref 23): 1.71
log KML ([5]; I = 0.15 M NaCl, 25 °C ref 23): 18.05
log KML ([6]; I = 0.15 M NaCl, 25 °C ref 23): 7.94
k1 ([10]; Cu(II) transmetalation ref 23): 16.9 ± 0.2 M^–1 s^–1
dissociation half-life t1/2 ([10]; calculated for pH 7.4, Cu(II) ref 23): 286.2 h

O=C(O)CN1CCOCCOCCNCc2cccc(n2)C1 [L1]
log KHML ([1]; I = 0.15 M NaCl, 25 °C ref 30): 2.67
log KML ([1]; I = 0.15 M NaCl, 25 °C ref 30): 15.86
log KML(OH) ([1]; I = 0.15 M NaCl, 25 °C ref 30): -9.7
log KML ([2]; Mn(II), I = 0.15 M NaCl, 25 °C ref 30): 11.06
log KHML ([2]; Mn(II), I = 0.15 M NaCl, 25 °C, log KMnHL in Table 5 ref 30): 3.82
pMn ([2]; pH 7.4, cMn = clig = 10^–5 M ref 30): 6.95
log K1^H ([3]; I = 0.15 M NaCl, 25 °C ref 30): 8.86
log K2^H ([3]; I = 0.15 M NaCl, 25 °C ref 30): 8.03
log K3^H ([3]; I = 0.15 M NaCl, 25 °C ref 30): 1.9
k0 ([4]; Zn(II) transmetalation ref 30): (4.1 ± 0.3) × 10^–3 s^–1
k1 ([4]; Zn(II) transmetalation ref 30): 1691 ± 41 M^–1 s^–1
dissociation half-life t1/2 ([4]; Zn(II) ref 30): 0.0467 h
log KHML ([5]; I = 0.15 M NaCl, 25 °C ref 30): 2.80
log KML ([5]; I = 0.15 M NaCl, 25 °C ref 30): 13.12
log KHML ([6]; I = 0.15 M NaCl, 25 °C ref 30): 6.37
log KML ([6]; I = 0.15 M NaCl, 25 °C ref 30): 5.51
